Key:
Assay in all cases: KINOMEscan competition binding
Conditions in all cases: compound 10.0 µM
PRKAA1 (human) = PRKAA1 (human) (UniProt Q13131)
NLK (human) = NLK (human) (UniProt Q9UBE8)
PRKCH (human) = PRKCH (human) (UniProt P24723)
CDK8 (human) = CDK8 (human) (UniProt P49336)
MKNK1 (human) = MKNK1 (human) (UniProt Q9BUB5)
CSNK2A2 (human) = CSNK2A2 (human) (UniProt P19784)
AKT3 (human) = AKT3 (human) (UniProt Q9Y243)
SIK2 (human) = SIK2 (human) (UniProt Q9H0K1)
CAMK2B (human) = CAMK2B (human) (UniProt Q13554)
AURKC (human) = AURKC (human) (UniProt Q9UQB9)
PRKD1 (human) = PRKD1 (human) (UniProt Q15139)
AKT2 (human) = AKT2 (human) (UniProt P31751)
CDK9 (human) = CDK9 (human) (UniProt P50750)
FGR (human) = FGR (human) (UniProt P09769)
LIMK2 (human) = LIMK2 (human) (UniProt P53671)
STK35 (human) = STK35 (human) (UniProt Q8TDR2)
CSNK2A1 (human) = CSNK2A1 (human) (UniProt P68400)
RIOK1 (human) = RIOK1 (human) (UniProt Q9BRS2)
PRKCQ (human) = PRKCQ (human) (UniProt Q04759)
MAPK6 (human) = MAPK6 (human) (UniProt Q16659)
PAK1 (human) = PAK1 (human) (UniProt Q13153)
BRSK1 (human) = BRSK1 (human) (UniProt Q8TDC3)
CSNK1G3 (human) = CSNK1G3 (human) (UniProt Q9Y6M4)
CSNK1G2 (human) = CSNK1G2 (human) (UniProt P78368)
TNIK (human) = TNIK (human) (UniProt Q9UKE5)
NUAK2 (human) = NUAK2 (human) (UniProt Q9H093)
CDC2L2 (human) = CDC2L2 (human) (UniProt Q9UQ88)
FLT4 (human) = FLT4 (human) (UniProt P35916)
CAMK2D (human) = CAMK2D (human) (UniProt Q13557)
LATS1 (human) = LATS1 (human) (UniProt O95835)
CLK1 (human) = CLK1 (human) (UniProt P49759)
CAMK2A (human) = CAMK2A (human) (UniProt Q9UQM7)
MST4 (human) = MST4 (human) (UniProt Q9P289)
MELK (human) = MELK (human) (UniProt Q14680)
MAP4K4 (human) = MAP4K4 (human) (UniProt O95819)
MYLK (human) = MYLK (human) (UniProt Q15746)
SRPK1 (human) = SRPK1 (human) (UniProt Q96SB4)
RIPK1 (human) = RIPK1 (human) (UniProt Q13546)
RPS6KA4 KD2 (human) = RPS6KA4 KD2 (human) (UniProt O75676)
ERBB2 (human) = ERBB2 (human) (UniProt P04626)

Chain of AKT2 (human) (P31751 whole entry, looked up): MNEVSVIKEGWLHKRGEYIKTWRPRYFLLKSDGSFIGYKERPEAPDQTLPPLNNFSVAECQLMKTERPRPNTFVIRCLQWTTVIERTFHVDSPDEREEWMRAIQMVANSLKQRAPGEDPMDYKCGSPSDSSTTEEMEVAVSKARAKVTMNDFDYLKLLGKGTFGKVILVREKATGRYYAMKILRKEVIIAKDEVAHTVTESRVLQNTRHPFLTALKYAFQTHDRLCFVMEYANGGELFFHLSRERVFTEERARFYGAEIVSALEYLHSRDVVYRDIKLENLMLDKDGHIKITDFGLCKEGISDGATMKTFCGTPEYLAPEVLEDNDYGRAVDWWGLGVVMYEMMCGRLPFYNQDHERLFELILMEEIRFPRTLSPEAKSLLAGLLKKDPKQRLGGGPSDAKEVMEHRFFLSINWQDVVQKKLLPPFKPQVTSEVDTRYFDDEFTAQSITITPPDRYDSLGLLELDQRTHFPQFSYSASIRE
Chain of CDK9 (human) (P50750 whole entry, looked up): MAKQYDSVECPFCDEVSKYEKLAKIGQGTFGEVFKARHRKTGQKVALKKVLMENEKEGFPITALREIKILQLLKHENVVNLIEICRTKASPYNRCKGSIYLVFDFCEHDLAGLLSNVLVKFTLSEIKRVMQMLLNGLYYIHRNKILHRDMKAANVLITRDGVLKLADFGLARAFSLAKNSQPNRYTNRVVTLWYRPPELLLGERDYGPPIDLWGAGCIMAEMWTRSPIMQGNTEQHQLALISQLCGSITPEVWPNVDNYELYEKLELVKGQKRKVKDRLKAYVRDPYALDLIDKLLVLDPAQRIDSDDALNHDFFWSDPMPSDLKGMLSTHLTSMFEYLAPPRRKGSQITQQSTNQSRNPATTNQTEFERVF
Chain of CSNK2A2 (human) (P19784 whole entry, looked up): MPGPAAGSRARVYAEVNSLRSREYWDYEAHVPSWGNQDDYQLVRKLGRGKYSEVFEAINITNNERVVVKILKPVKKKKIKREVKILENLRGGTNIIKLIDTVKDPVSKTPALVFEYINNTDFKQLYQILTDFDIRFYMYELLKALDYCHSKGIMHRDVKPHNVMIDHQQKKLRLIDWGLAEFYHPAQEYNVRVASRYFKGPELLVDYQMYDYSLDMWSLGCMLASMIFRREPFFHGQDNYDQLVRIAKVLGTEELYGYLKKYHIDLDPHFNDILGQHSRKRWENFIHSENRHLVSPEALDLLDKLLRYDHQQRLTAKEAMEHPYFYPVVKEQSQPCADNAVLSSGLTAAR
Chain of CSNK2A1 (human) (P68400 whole entry, looked up): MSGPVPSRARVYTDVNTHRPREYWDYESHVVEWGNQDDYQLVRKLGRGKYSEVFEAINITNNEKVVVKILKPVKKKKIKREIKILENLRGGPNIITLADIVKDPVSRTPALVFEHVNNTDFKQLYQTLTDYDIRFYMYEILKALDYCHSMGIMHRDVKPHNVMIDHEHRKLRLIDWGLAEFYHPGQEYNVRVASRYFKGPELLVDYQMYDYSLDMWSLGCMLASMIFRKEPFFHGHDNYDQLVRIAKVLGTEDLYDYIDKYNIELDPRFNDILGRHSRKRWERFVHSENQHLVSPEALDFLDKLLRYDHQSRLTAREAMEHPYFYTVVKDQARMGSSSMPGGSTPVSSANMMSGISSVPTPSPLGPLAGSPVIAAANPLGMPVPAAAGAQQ
Chain of PAK1 (human) (Q13153 whole entry, looked up): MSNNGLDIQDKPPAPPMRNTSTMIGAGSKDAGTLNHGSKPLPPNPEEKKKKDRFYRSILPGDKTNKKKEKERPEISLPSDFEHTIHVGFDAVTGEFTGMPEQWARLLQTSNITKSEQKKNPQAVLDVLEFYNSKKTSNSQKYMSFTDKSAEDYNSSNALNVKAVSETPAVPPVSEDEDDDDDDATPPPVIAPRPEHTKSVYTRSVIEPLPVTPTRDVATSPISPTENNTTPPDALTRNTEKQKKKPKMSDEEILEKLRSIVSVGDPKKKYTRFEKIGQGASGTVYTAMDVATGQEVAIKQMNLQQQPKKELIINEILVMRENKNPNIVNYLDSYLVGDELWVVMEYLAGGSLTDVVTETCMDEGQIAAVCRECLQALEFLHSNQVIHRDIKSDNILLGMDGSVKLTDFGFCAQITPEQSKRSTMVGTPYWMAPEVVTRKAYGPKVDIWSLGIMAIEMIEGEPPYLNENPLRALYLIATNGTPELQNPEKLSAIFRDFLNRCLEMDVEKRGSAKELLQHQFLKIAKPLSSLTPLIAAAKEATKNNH
Chain of LATS1 (human) (O95835 whole entry, looked up): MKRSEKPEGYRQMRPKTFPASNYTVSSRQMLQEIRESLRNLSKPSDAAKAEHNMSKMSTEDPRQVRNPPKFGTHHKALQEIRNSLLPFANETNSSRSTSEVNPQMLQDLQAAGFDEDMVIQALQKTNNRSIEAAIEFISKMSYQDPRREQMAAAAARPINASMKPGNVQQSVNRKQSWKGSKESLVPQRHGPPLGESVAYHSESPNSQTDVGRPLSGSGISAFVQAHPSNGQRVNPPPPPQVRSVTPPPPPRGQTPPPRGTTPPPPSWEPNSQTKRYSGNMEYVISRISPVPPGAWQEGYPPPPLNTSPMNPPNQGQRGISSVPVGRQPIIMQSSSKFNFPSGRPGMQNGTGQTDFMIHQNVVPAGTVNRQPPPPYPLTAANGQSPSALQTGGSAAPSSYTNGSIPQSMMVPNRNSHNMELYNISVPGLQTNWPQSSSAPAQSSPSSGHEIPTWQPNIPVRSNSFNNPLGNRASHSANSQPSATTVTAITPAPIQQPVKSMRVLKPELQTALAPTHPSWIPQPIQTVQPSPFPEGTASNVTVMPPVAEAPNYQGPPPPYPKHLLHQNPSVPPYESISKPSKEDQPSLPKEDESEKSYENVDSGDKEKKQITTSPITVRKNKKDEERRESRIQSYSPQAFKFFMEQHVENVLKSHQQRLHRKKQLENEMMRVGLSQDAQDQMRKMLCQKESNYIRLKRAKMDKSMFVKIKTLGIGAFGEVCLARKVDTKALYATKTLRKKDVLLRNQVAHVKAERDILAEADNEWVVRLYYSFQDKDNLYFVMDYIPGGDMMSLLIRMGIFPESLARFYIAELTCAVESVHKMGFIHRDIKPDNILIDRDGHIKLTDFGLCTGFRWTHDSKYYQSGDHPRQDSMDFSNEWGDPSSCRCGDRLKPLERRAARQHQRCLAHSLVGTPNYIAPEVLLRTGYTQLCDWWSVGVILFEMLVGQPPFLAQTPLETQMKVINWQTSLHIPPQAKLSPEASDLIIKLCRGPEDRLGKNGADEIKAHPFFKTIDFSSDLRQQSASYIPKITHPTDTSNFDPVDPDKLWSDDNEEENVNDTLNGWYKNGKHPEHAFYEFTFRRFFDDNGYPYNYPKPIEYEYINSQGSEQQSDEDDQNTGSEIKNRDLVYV
Chain of CAMK2B (human) (Q13554 whole entry, looked up): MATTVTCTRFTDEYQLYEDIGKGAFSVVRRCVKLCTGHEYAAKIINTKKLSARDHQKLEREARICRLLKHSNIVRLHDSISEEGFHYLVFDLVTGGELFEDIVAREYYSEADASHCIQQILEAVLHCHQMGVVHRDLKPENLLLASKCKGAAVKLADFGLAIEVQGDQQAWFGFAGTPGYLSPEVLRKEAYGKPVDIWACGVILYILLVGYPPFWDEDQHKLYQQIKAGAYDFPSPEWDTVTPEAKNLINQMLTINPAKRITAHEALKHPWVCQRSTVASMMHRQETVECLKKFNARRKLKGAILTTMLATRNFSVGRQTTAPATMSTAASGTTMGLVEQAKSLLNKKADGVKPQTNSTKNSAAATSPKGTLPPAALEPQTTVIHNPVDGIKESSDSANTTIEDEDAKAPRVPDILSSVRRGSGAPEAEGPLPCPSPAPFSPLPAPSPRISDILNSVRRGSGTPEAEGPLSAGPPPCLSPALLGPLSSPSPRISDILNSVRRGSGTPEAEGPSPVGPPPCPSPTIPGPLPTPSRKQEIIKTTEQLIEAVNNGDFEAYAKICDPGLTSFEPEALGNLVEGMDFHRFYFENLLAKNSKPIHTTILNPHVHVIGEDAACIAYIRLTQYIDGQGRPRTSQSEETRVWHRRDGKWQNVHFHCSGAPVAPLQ
Chain of RIPK1 (human) (Q13546 whole entry, looked up): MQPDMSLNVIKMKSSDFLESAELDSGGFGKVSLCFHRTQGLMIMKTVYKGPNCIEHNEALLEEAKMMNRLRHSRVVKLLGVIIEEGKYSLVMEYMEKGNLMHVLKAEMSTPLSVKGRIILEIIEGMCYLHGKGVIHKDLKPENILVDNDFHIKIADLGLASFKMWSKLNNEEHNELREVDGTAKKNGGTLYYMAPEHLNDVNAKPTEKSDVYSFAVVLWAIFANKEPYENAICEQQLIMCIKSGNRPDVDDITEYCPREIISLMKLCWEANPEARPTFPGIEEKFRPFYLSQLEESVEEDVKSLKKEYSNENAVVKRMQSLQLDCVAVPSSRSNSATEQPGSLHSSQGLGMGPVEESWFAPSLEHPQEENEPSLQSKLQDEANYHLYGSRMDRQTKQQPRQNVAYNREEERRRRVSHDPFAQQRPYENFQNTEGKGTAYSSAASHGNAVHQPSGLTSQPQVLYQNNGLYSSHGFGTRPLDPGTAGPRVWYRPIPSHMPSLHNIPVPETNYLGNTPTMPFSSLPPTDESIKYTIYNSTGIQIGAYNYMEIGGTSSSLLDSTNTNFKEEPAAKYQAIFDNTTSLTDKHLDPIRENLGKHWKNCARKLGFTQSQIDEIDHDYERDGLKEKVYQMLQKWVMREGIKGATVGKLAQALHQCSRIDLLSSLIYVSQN
Chain of CSNK1G2 (human) (P78368 whole entry, looked up): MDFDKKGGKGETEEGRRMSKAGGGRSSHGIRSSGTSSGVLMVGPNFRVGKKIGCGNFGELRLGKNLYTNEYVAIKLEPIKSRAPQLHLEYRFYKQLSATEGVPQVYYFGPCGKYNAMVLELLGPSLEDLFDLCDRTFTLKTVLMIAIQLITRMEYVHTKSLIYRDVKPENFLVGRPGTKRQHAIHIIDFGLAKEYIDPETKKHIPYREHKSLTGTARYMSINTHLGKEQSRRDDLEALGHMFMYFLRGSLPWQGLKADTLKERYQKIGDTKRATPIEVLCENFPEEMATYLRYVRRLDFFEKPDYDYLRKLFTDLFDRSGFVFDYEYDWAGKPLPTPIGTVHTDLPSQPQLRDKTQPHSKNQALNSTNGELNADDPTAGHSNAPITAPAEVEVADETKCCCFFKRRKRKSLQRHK

CCN1CCN(Cc2ccc(Nc3ncc4c(n3)N(C)c3ccccc3C(=O)N4C)cc2C(F)(F)F)CC1
kinase still bound, per cent of control (PRKAA1 (human)): 2.4% | kinase still bound, per cent of control (NLK (human)): 56% | kinase still bound, per cent of control (PRKCH (human)): 100% | kinase still bound, per cent of control (CDK8 (human)): 94% | kinase still bound, per cent of control (MKNK1 (human)): 100% | kinase still bound, per cent of control (CSNK2A2 (human)): 100% | kinase still bound, per cent of control (AKT3 (human)): 100% | kinase still bound, per cent of control (SIK2 (human)): 24% | kinase still bound, per cent of control (CAMK2B (human)): 58% | kinase still bound, per cent of control (AURKC (human)): 8.7% | kinase still bound, per cent of control (PRKD1 (human)): 17% | kinase still bound, per cent of control (AKT2 (human)): 100% | kinase still bound, per cent of control (CDK9 (human)): 100% | kinase still bound, per cent of control (FGR (human)): 26% | kinase still bound, per cent of control (LIMK2 (human)): 85% | kinase still bound, per cent of control (STK35 (human)): 76% | kinase still bound, per cent of control (CSNK2A1 (human)): 79% | kinase still bound, per cent of control (RIOK1 (human)): 33% | kinase still bound, per cent of control (PRKCQ (human)): 100% | kinase still bound, per cent of control (MAPK6 (human)): 20% | kinase still bound, per cent of control (PAK1 (human)): 86% | kinase still bound, per cent of control (BRSK1 (human)): 41% | kinase still bound, per cent of control (CSNK1G3 (human)): 5.4% | kinase still bound, per cent of control (CSNK1G2 (human)): 8.9% | kinase still bound, per cent of control (TNIK (human)): 100% | kinase still bound, per cent of control (NUAK2 (human)): 6.6% | kinase still bound, per cent of control (CDC2L2 (human)): 97% | kinase still bound, per cent of control (FLT4 (human)): 100% | kinase still bound, per cent of control (CAMK2D (human)): 69% | kinase still bound, per cent of control (LATS1 (human)): 100% | kinase still bound, per cent of control (CLK1 (human)): 86% | kinase still bound, per cent of control (CAMK2A (human)): 53% | kinase still bound, per cent of control (MST4 (human)): 5.6% | kinase still bound, per cent of control (MELK (human)): 75% | kinase still bound, per cent of control (MAP4K4 (human)): 81% | kinase still bound, per cent of control (MYLK (human)): 64% | kinase still bound, per cent of control (SRPK1 (human)): 82% | kinase still bound, per cent of control (RIPK1 (human)): 24% | kinase still bound, per cent of control (RPS6KA4 KD2 (human)): 100% | kinase still bound, per cent of control (ERBB2 (human)): 100%

CCCS(=O)(=O)Nc1ccc(F)c(C(=O)c2c[nH]c3ncc(-c4ccc(Cl)cc4)cc23)c1F
kinase still bound, per cent of control (PRKAA1 (human)): 89% | kinase still bound, per cent of control (NLK (human)): 81% | kinase still bound, per cent of control (PRKCH (human)): 100% | kinase still bound, per cent of control (CDK8 (human)): 4.6% | kinase still bound, per cent of control (MKNK1 (human)): 70% | kinase still bound, per cent of control (CSNK2A2 (human)): 100% | kinase still bound, per cent of control (AKT3 (human)): 100% | kinase still bound, per cent of control (SIK2 (human)): 61% | kinase still bound, per cent of control (CAMK2B (human)): 98% | kinase still bound, per cent of control (PRKD1 (human)): 8.2% | kinase still bound, per cent of control (AKT2 (human)): 76% | kinase still bound, per cent of control (CDK9 (human)): 100% | kinase still bound, per cent of control (FGR (human)): 9.2% | kinase still bound, per cent of control (LIMK2 (human)): 24% | kinase still bound, per cent of control (STK35 (human)): 100% | kinase still bound, per cent of control (CSNK2A1 (human)): 100% | kinase still bound, per cent of control (RIOK1 (human)): 100% | kinase still bound, per cent of control (PRKCQ (human)): 43% | kinase still bound, per cent of control (MAPK6 (human)): 100% | kinase still bound, per cent of control (PAK1 (human)): 95% | kinase still bound, per cent of control (BRSK1 (human)): 100% | kinase still bound, per cent of control (CSNK1G3 (human)): 100% | kinase still bound, per cent of control (CSNK1G2 (human)): 88% | kinase still bound, per cent of control (TNIK (human)): 15% | kinase still bound, per cent of control (NUAK2 (human)): 98% | kinase still bound, per cent of control (CDC2L2 (human)): 91% | kinase still bound, per cent of control (FLT4 (human)): 82% | kinase still bound, per cent of control (CAMK2D (human)): 100% | kinase still bound, per cent of control (LATS1 (human)): 100% | kinase still bound, per cent of control (CLK1 (human)): 70% | kinase still bound, per cent of control (CAMK2A (human)): 100% | kinase still bound, per cent of control (MST4 (human)): 100% | kinase still bound, per cent of control (MELK (human)): 100% | kinase still bound, per cent of control (MAP4K4 (human)): 48% | kinase still bound, per cent of control (MYLK (human)): 91% | kinase still bound, per cent of control (SRPK1 (human)): 92% | kinase still bound, per cent of control (RIPK1 (human)): 63% | kinase still bound, per cent of control (RPS6KA4 KD2 (human)): 96% | kinase still bound, per cent of control (ERBB2 (human)): 100%
